According to PMC8230315, “A Pan-Inhibitor for Protein Arginine Methyltransferase Family Enzymes” (Biomolecules, 2021):
Like-named read-outs stand apart in the source and are kept apart here.

Experiments:
PRMT1 = PRMT1 (Homo sapiens, UniProt Q99873); assay: SAHH-coupled fluorescence assay, PRMT1 inhibition; assay type: biochemical
Method: A fluorescence-based SAHH-coupled assay was used to evaluate the IC50 values of inhibitors by monitoring the production of SAH from SAM after methylation. […] The fluorescence signal was monitored on a BMG CLARIOstar microplate reader with excitation at 400 nm and emission at 465 nm for 18 min. Data were processed using GraphPad Prism software 7.0. All experiments were performed in duplicate.
The fluorescence signal was monitored on a BMG CLARIOstar microplate reader with excitation at 400 nm and emission at 465 nm for 18 min. Data were processed using GraphPad Prism software 7.0. All experiments were performed in duplicate. […].

NTMT1 = assay: Selectivity SAHH-coupled fluorescence assay, NTMT1; assay type: biochemical
Text: We chose the top four potent compounds (6b and 6l–n) to investigate their selectivities against several in-house methyltransferases including protein arginine methyltransferase TbPRMT7, two members of the protein lysine methyltransferase PKMT (G9a and SETD7), protein N-terminal methyltransferase 1 (NTMT1), and a small molecule methyltransferase nicotinamide N-methyltransferase (NNMT), all of which have a SAM binding site.
A fluorescence-based SAHH-coupled assay was applied to study the effect of the compound on methyltransferase activity of PRMT7, NTMT1, SETD7, G9a, NNMT, and SAHH. For PRMT7, the assay was performed in a final well volume of 100 μL: 25 mM Tris (pH = 7.5), 50 mM KCl, 0.01% Triton X-100, 5 μM SAHH, 0.2 μM PRMT7, 3 μM AdoMet, and 15 μM ThioGlo1. After incubation for 10 min with the inhibitor, reactions were initiated by the addition of 60 μM H4-21 peptide, and the reaction was monitored for 15 min. […] After incubation for 10 min with the inhibitor, reactions were initiated by the addition of 0.5 μM GPKRIA peptide, and the reaction was monitored for 15 min. […] After incubation for 10 min with the inhibitor, reactions were initiated by the addition of 90 μM H3-21 peptide, and the reaction was monitored for 15 min. […] After incubation for 10 min with the inhibitor, reactions were initiated by the addition of 10 μM nicotinamide, and the reaction was monitored for 18 min. […]

PRMT5/MEP50 Complex = target: T1, PRMT5/MEP50 Complex (Homo sapiens, UniProt O14744); assay: HotSpot radioisotope 3H-AdoMet methyltransferase assay, PRMT5/MEP50; assay type: biochemical
T1 construct: purchased Reaction Biology
Method: (§1) Future studies will focus on obtaining structural information of II757 bound to PRMTs to inform how to connect to a substrate portion to increase both potency and selectivity for each PRMT.
(§2) Figure 6 Selectivity of II757 against the panel of PRMTs. II757 was tested in 10 doses with threefold serial dilution in the HotSpot methyltransferase assay at reaction biology. TEXT PRINTED IN THE PICTURE: II757: IC50 (nM) PRMT1: 16.4; IC50 (nM) PRMT3: 321; IC50 (nM) PRMT4: 5.05; IC50 (nM) PRMT5/MEP50 Complex: 18.2; IC50 (nM) PRMT5 (C449S)/MEP50: 36.6; IC50 (nM) PRMT6: 30.5; IC50 (nM) PRMT7: 555; IC50 (nM) PRMT8: 32.1

PRMT8 = target: T2, PRMT8 (Homo sapiens, UniProt Q9NR22); assay: HotSpot radioisotope 3H-AdoMet methyltransferase assay, PRMT8; assay type: biochemical
T2 construct: purchased Reaction Biology
Method: as §1, §2

[1] = system: histone H4 Arg3 asymmetric dimethylation (H4R3me2a); assay: Cellular arginine methylation assay, Western blot in HEK293 cells; assay type: cell-based; settings: 48 h, at 10 µM
Method: Furthermore, we proceeded to investigate the inhibitory effects of II757 on the methylation level of histone H4 Arg3 via Western blotting to check its cellular inhibition. […] Future studies will focus on tethering this moiety with reported substrate-competitive inhibitors to enhance the selectivity and cellular potency.
HEK293 cell line was cultured in DMEM media supplemented with 10% FBS and 1% antibiotic-antimycotic (Gibco, Fisher, Waltham, MA, USA). The cells were maintained in a tissue culture dish (Falcon 353003, Fisher, Waltham, MA, USA) until seeding at a density of 0.03 × 10^6 cells/mL into a 24-well tissue culture plate (Falcon 353047, Fisher, Waltham, MA, USA). The cells were incubated overnight at 37 °C in 5% CO2 with the lid on. They were then treated with the inhibitors at different concentrations for 48 h. […]
The protein was quantified using BCA (Pierce BCA Protein Assay Kit, 23225, Fisher, Waltham, MA, USA) and equal amounts of protein were resolved by SDS-PAGE electrophoresis and blotted on Transfer membrane (Immun-Blot PVDF Membranes, Bio-Rad, Hercules, CA, USA Bio-Rad, 1620177). […] The membranes were washed three times with 1X TBST for 5 min each, and the proteins were detected by ECL (Bio-Rad, Hercules, CA, USA).

Chain of PRMT1 (Q99873 whole entry, species assumed): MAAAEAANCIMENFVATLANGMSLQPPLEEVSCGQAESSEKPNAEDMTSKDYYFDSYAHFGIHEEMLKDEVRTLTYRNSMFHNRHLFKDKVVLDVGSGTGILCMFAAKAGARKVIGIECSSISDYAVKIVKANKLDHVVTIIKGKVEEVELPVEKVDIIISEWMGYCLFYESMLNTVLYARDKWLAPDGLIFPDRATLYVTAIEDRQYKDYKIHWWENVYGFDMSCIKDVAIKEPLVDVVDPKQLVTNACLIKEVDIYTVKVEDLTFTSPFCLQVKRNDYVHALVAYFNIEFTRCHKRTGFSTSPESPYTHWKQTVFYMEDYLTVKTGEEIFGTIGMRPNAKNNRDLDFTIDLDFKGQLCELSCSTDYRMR
T1 sequence (O14744 whole entry): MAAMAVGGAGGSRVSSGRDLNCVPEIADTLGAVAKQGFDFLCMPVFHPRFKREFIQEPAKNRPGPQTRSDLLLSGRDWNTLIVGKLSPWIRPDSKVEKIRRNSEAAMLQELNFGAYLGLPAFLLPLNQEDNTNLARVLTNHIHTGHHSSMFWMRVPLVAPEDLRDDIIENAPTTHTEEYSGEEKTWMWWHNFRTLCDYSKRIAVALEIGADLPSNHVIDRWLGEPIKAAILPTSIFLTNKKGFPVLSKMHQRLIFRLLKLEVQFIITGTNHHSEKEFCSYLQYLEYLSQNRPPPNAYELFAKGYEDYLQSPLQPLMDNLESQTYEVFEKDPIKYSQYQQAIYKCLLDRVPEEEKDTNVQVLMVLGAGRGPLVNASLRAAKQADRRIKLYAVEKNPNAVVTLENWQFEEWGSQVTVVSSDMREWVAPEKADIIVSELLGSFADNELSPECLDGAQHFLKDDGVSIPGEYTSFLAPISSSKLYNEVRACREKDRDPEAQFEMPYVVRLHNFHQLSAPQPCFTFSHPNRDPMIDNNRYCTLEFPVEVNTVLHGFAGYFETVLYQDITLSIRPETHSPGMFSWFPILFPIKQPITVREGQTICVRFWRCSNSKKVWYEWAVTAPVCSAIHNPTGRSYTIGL
T1 sequence (Q9BQA1 whole entry partner): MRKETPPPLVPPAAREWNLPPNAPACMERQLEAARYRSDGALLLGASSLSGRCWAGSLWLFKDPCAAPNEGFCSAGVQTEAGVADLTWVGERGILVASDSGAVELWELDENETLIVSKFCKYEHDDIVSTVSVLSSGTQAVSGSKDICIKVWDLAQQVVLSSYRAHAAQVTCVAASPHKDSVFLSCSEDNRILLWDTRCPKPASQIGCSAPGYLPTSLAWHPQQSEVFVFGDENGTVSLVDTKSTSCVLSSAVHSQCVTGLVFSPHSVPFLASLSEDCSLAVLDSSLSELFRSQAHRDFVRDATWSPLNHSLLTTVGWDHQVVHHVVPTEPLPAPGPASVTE
T2 sequence (Q9NR22 whole entry): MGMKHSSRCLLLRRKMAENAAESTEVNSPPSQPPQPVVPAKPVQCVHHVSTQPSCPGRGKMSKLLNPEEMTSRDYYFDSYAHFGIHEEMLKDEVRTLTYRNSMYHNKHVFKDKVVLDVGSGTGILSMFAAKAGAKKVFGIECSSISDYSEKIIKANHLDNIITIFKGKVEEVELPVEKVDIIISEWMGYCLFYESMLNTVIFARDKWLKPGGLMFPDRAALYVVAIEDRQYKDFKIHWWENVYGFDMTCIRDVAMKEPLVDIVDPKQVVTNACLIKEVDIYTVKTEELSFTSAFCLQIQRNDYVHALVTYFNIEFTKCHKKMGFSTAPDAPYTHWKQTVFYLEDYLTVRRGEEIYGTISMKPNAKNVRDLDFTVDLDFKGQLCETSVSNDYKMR

SMILES: N=C(NCCCSC[C@H]1O[C@@H](n2cnc3c(N)ncnc32)[C@H](O)[C@@H]1O)Nc1cccc(Br)c1 [Compound 6l, 1-(3-((((2S,3S,4R,5R)-5-(6-amino-9H-purin-9-yl)-3,4-dihydroxytetrahydrofuran-2-yl)methyl)thio)propyl)-3-(3-bromophenyl)guanidine]
- IC50 (PRMT1; PRMT1 0.1 µM, substrate concentration at 4 Km (footnote a), n = 2, mean ± SD): 0.09 ± 0.04 µM
- Ki (PRMT1; SAHH-coupled assay, PRMT1, read-out: apparent Ki): ~0.018 µM
- Ki (PRMT1; calculated as Ki, app = IC50/(1 + [S]/Km), read-out: Ki, app): 0.018 ± 0.008 µM
- selectivity over NTMT1 (NTMT1): over 1000 fold
- IC50 (PRMT5/MEP50 Complex): 0.0182 µM
- IC50 (PRMT8): 0.0321 µM
- H4R3me2a level [1]: decrease
